Results: PubChem BioAssay (NCI)
Several values for one entry are separate records, joined by “and”; a condition that tells them apart may be missing. Identical values can stand only once.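 Growth conditions: 96-well plates. Treatment: test compound, 48 hours, 5 concentrations. Analysis: linear interpolation between bracketing concentrations; unreached endpoints set to highest concentration. At the GI50, growth is halved. TGI: concentration producing complete growth inhibition.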 Where a SMILES comes first, the peptide text is derived from it. [ ]: non-standard residue; d: D form. The star is where a group is joined. ξ: configuration not given here. dIva = CC[C@@](C)(N)C(=O)O; Aib = CC(C)(N)C(=O)O; ξP = O=C(O)C1CCCN1; βAla = NCCC(=O)O; X5 = OCN*

Tests used:
Assay in all cases: NCI tumour cell line growth inhibition, 48 h
[1] = test system: MDA-MB-468 breast
[2] = test system: T-47D breast
[3] = test system: CAKI-1 renal
[4] = test system: NCI/ADR-RES ovarian
[5] = test system: HCT-116 colon
[6] = test system: SW-620 colon
[7] = test system: HS 578T breast
[8] = test system: SF-539 CNS
[9] = test system: SN12C renal
[10] = test system: A549 NSCLC
[11] = test system: MCF7 breast
[12] = test system: SK-OV-3 ovarian
[13] = test system: NCI-H460 lung
[14] = test system: MALME-3M melanoma
[15] = test system: UACC-257 melanoma
[16] = test system: UACC-62 melanoma
[17] = test system: KM12 colon
[18] = test system: BT-549 breast
[19] = test system: HOP-62 NSCLC
[20] = test system: OVCAR-4 ovarian
[21] = test system: LOX IMVI melanoma
[22] = test system: K-562 leukemia
[23] = test system: OVCAR-8 ovarian
[24] = test system: M14 melanoma
[25] = test system: TK-10 renal
[26] = test system: SK-MEL-5 melanoma
[27] = test system: HCT-15 colon
[28] = test system: OVCAR-5 ovarian
[29] = test system: SR leukemia
[30] = test system: OVCAR-3 ovarian
[31] = test system: DU-145 prostate
[32] = test system: SNB-19 CNS
[33] = test system: SF-268 CNS
[34] = test system: RPMI-8226 leukemia
[35] = test system: 786-0 renal
[36] = test system: SF-295 CNS
[37] = test system: A498 renal
[38] = test system: U251 CNS
[39] = test system: SK-MEL-28 melanoma
[40] = test system: RXF 393 renal
[41] = test system: HL-60(TB) leukemia
[42] = test system: NCI-H226 lung
[43] = test system: MDA-MB-435
[44] = test system: HOP-92 NSCLC
[45] = test system: IGROV1 ovarian
[46] = test system: ACHN renal
[47] = test system: COLO 205 colon
[48] = test system: HCC-2998 colon
[49] = test system: PC-3 prostate
[50] = test system: NCI-H23 lung
[51] = test system: EKVX NSCLC
[52] = test system: HT29 colon
[53] = test system: NCI-H522 lung
[54] = test system: CCRF-CEM leukemia
[55] = test system: MOLT-4 leukemia

O=C1C=C(OCC=C(Cl)Cl)C(=O)c2ccccc21
GI50 [1]: 1.05 µM | TGI [1]: 3.6 µM

CCCCCCCCCCCCCCCC(N)c1ccccc1 (stereo unspecified)
GI50 [1]: 1.58 µM | TGI [1]: 3.14 µM

COc1ccc(-c2cc3c(N)ncnc3o2)cc1
GI50 [1]: > 25 µM | TGI [1]: > 25 µM

COc1cc(OC)c2c(c1Cl)O[C@]1(C2=O)C(OCc2ccccc2)=CC(=O)C[C@H]1C
GI50 [1]: 0.741 µM | TGI [1]: 47.5 µM

CN1C(=O)C(C)(C)Oc2c(-c3cn(C)c(=O)c4[nH]ccc34)cc(S(C)(=O)=O)cc21
GI50 [1]: 0.551 µM | TGI [1]: 3.7 µM

CCC(=O)Oc1ccc(/C=N/NC(N)=S)nc1
GI50 [1]: 1.97 µM | TGI [1]: 7.22 µM

COc1ccc(-c2c(C#N)cnc(N)c2-c2nc3cc(C)c(C)cc3[nH]2)cc1
GI50 [1]: 6.22 µM | TGI [1]: 23.1 µM

O=C(Nc1nc2ccc([N+](=O)[O-])cc2s1)Nc1ccccc1F
GI50 [2]: 3.06 µM | TGI [2]: 22.7 µM | GI50 [3]: 5.32 µM | TGI [3]: 73.2 µM | GI50 [4]: 7.98 µM | TGI [4]: 32.4 µM | GI50 [5]: 9.97 µM | TGI [5]: 39.8 µM | GI50 [6]: 12.2 µM | TGI [6]: > 100 µM | GI50 [7]: 5.89 µM | TGI [7]: 59 µM | GI50 [8]: 8.33 µM | TGI [8]: 26.9 µM | GI50 [1]: 3.2 µM | TGI [1]: 19.2 µM | GI50 [9]: 4.65 µM | TGI [9]: 62.3 µM | GI50 [10]: 7.4 µM | TGI [10]: 28.5 µM | GI50 [11]: 5.68 µM | TGI [11]: 35.3 µM | GI50 [12]: 5.9 µM | TGI [12]: 46.1 µM | GI50 [13]: 4.66 µM | TGI [13]: 26.5 µM | GI50 [14]: 4.17 µM | TGI [14]: 30.9 µM | GI50 [15]: 6.08 µM | TGI [15]: 36.9 µM | GI50 [16]: 3.77 µM | TGI [16]: > 100 µM | GI50 [17]: 5.33 µM | TGI [17]: 52.8 µM | GI50 [18]: 11.9 µM | TGI [18]: 46.5 µM | GI50 [19]: 17.2 µM | TGI [19]: 56.3 µM | GI50 [20]: 5.21 µM | TGI [20]: > 100 µM | GI50 [21]: 10.7 µM | TGI [21]: 58.8 µM | GI50 [22]: 4.99 µM | TGI [22]: 25 µM | GI50 [23]: 15.8 µM | TGI [23]: 50.4 µM | GI50 [24]: 19.1 µM | TGI [24]: > 100 µM | GI50 [25]: 8.78 µM | TGI [25]: 83 µM | GI50 [26]: 2.64 µM | TGI [26]: 7.35 µM | GI50 [27]: 4.93 µM | TGI [27]: 33.9 µM | GI50 [28]: 22 µM | TGI [28]: 80.8 µM | GI50 [29]: 3.31 µM | TGI [29]: 17.4 µM | GI50 [30]: 3.99 µM | TGI [30]: 46.6 µM | GI50 [31]: 7.11 µM | TGI [31]: > 100 µM | GI50 [32]: 6.35 µM | TGI [32]: > 100 µM | GI50 [33]: 8.41 µM | TGI [33]: > 100 µM | GI50 [34]: 3.45 µM | TGI [34]: 16.5 µM | GI50 [35]: 17.7 µM | TGI [35]: > 100 µM | GI50 [36]: 11.4 µM | TGI [36]: 32.1 µM | GI50 [37]: 4.88 µM | TGI [37]: 36.7 µM | GI50 [38]: 7.41 µM | TGI [38]: 35.7 µM | GI50 [39]: 5.79 µM | TGI [39]: 83.8 µM | GI50 [40]: 13.3 µM | TGI [40]: 47.3 µM | GI50 [41]: 4.31 µM | TGI [41]: 22 µM | GI50 [42]: 13.4 µM | TGI [42]: > 100 µM | GI50 [43]: 5.46 µM | TGI [43]: > 100 µM | GI50 [44]: 2.83 µM | TGI [44]: 8.28 µM | GI50 [45]: 4.57 µM | TGI [45]: > 100 µM | GI50 [46]: 8.13 µM | TGI [46]: 95.7 µM | GI50 [47]: 15.1 µM | TGI [47]: 30.4 µM | GI50 [48]: 7.58 µM | TGI [48]: 34.1 µM | GI50 [49]: 6.83 µM | TGI [49]: 51 µM | GI50 [50]: 3.6 µM | TGI [50]: 21.6 µM | GI50 [51]: 4.37 µM | TGI [51]: 55.5 µM | GI50 [52]: 23.6 µM | TGI [52]: > 100 µM | GI50 [53]: 3.49 µM | TGI [53]: 22.6 µM | GI50 [54]: 5.42 µM | TGI [54]: 47.9 µM | GI50 [55]: 3.77 µM | TGI [55]: 15.5 µM

O=S1(=O)C=C(c2ccccc2)C(c2ccccc2)=C1
GI50 [1]: 1.14 µM | TGI [1]: 2.46 µM

CC(=O)N1c2ccc(-c3ccc(C(=O)O)cc3)cc2[C@H](Nc2ccc(Cl)cc2)C[C@@H]1C
GI50 [1]: 0.131 µM | TGI [1]: 17.3 µM

NS(=O)(=O)c1ccc(N=Nc2c(=O)[nH]c3ccc4[nH]cccc4c23)cc1
GI50 [1]: 0.0733 µM | TGI [1]: 0.257 µM

CC1(C)N=C(N)N=C(N)N1c1ccc(CCC(=O)Nc2cccc(S(=O)(=O)F)c2)cc1
GI50 [1]: 1.31 µM | TGI [1]: > 100 µM

COc1cc[nH]c1/C=C1\C(=O)Nc2ccc([N+](=O)[O-])c(N3CC[C@@H](O)C3)c21
GI50 [1]: 0.352 µM | TGI [1]: 0.995 µM

CN(C)CCNC(=O)c1ccc(-c2nc3ccc4[nH]ncc4c3c3c2COCC3)cc1
GI50 [1]: 0.169 µM | TGI [1]: 0.36 µM

C[C@H](c1ccc(Cl)cc1[N+](=O)[O-])N1C(=O)c2cc(I)ccc2NC(=O)[C@H]1c1ccc(Cl)cc1
GI50 [1]: 16.6 µM | TGI [1]: > 100 µM

CC(CNc1nc(Nc2ccc(Cl)c(Cl)c2)nc(C(Cl)(Cl)Cl)n1)N(C)C (stereo unspecified)
GI50 [1]: 1.47 µM | TGI [1]: 2.85 µM

CC[C@@](C)(NC(=O)[C@H](C)NC(=O)CCNC(=O)C(C)(C)NC(=O)[C@H](C)NC(=O)[C@@H]1CCCN1C(=O)[C@@](C)(CC)NC(=O)[C@H](Cc1ccccc1)NC(=O)C1CCCN1C(=O)C(C)(C)NC(=O)C1CCCN1C(=O)C(C)(C)NC(C)=O)C(=O)NCCC(=O)N[C@@H](CC(C)C)C(=O)NC(C)(C)C(=O)NCCC(=O)N[C@@H](CC(C)C)C(=O)NC(C)(C)C(=O)NC(C)(C)C(=O)N[C@@H](CC(C)C)C(=O)NCCC(=O)NCO (stereo partly specified) (Ac-[Aib][ξP][Aib][ξP]F[dIva]PA[Aib][βAla]A[dIva][βAla]L[Aib][βAla]L[Aib][Aib]L[βAla]-X5)
GI50 [1]: 0.0528 µM | TGI [1]: 0.163 µM

COC(=O)CCc1c(/C=C2\N=C(c3ccc[nH]3)C=C2OC)[nH]c(C)c1C(=O)OCc1ccccc1
GI50 [1]: 0.842 µM | TGI [1]: 4.4 µM

CN1CCN(Cc2ccc(NC(=O)c3cncc(C#Cc4ncc5ccccn45)c3)cc2C(F)(F)F)CC1
GI50 [1]: 2.78 µM | TGI [1]: 7.9 µM

CNCC1CCn2c(c(C3=C(c4cn(C)c5ccccc45)C(=O)NC3=O)c3ccccc32)C1 (stereo unspecified)
GI50 [1]: 2.62 µM | TGI [1]: 6.58 µM

COc1ccc2c(c1)NC(=O)CN2c1nc(C)nc2ccccc12
GI50 [1]: 0.000415 µM

NC(N)=NC(N)=NCc1ccco1
GI50 [1]: 158 µM and 36.8 µM | TGI [1]: 500 µM

Nc1nc(N)c(-c2ccc(Cl)cc2)c(/C=C/c2ccc([N+](=O)[O-])cc2)n1
GI50 [1]: 3.02 µM | TGI [1]: > 100 µM

COC(=O)[C@]1(C)CC[C@]2(C)CC[C@]3(C)C(=CC(=O)[C@@H]4[C@@]5(C)CCC(=O)NC(C)(C)[C@@H]5CC[C@]43C)[C@@H]2C1
GI50 [1]: 18.3 µM | TGI [1]: 64.2 µM

C=CC(=O)Nc1cccc(Nc2nc(Nc3ccc(N4CCN(C(C)=O)CC4)cc3OC)ncc2C(F)(F)F)c1
GI50 [1]: 0.288 µM and 0.266 µM | TGI [1]: 1.98 µM and 1.62 µM

NC(N)=N/N=C/c1ccc(Br)cc1
GI50 [1]: 1.5 µM | TGI [1]: 4.81 µM

O=C1/C(=C/c2cccc(F)c2)CN(C(=O)C(Cl)Cl)C/C1=C\c1cccc(F)c1
GI50 [1]: 0.207 µM | TGI [1]: 0.529 µM

CCC(=O)OCN1C(=O)C=CC1=O
GI50 [1]: 14.1 µM | TGI [1]: 32.4 µM

CN1CCN(Cc2ccc(NC(=O)c3[nH]ncc3Nc3cc(OC4CCCC4)ncn3)cc2)CC1
GI50 [1]: 1.98 µM | TGI [1]: 4.77 µM

COc1ccc(/C=C/C(=O)/C=C(/C=C/c2ccc(OC)c(OC)c2OC)OB(F)F)c(OC)c1OC
GI50 [1]: 2.57 µM | TGI [1]: 9.65 µM

COc1ccccc1/C=C/C=N/NC1=NC2C(S1)N(C)C(=O)N2c1ccccc1 (stereo unspecified)
GI50 [1]: 0.428 µM | TGI [1]: 31 µM

CC(=O)Nc1nc(C)c(-c2cc3c(c(S(C)(=O)=O)c2)C(=O)N([C@@H](C)C2CC2)C3)s1
GI50 [1]: 31.6 µM | TGI [1]: > 100 µM
